One data set in a line: Compound solubility. In kind it is physicochemical. The settings on record: for Compound Solubility, 1 μM: solvent at 1 μM; for Compound Solubility, 10 μM: solvent at 10 μM; for Compound Solubility, 100 μM: solvent at 100 μM; for Compound Solubility, 1 mM: solvent at 1 mM; for Compound Solubility, 10 mM: solvent at 10 mM; for Compound Solubility, 16 mg/ml: solvent at 16 mg/ml.

A further data set concerns the target DksA (Salmonella typhimurium, UniProt P0A1G5). As to the kind of experiment: DksA-dependent livJ in vitro transcription. The format is biochemical. The settings on record: livJ promoter; for IVT: concentration showing activity. The procedure: To measure the potency of a compound in inhibition of DksA biological function, rpsMtranscripts in vitro was determined by non-radioactive in vitro transcription reactions with qPCR analysis with divergent compounds. Briefly, 5 nM pTIM-rpsMplasmid was mixed with […] of compounds in 10 μl reaction buffer (40 mM HEPES [pH 7.4], 2 mM MgCl2, 60 mM potassium glutamate, 0.05% NP-40, 200 μM ATP, 200 μM GTP, 200 μM CTP, 200 μM UTP, and 5 nM E. coli RNA polymerase holoenzyme (NEB, Ipswich, MA) with 5 μM DksA. The in vitro transcription was carried out at 37° C. for 10 min, and then terminated at 70° C. for 10 min. To remove template DNA after treated with DNaseI, DNA-free DNA Removal kit (ThermoFisher) was used according to manufacturer's direction. The resulting materials were used as templates to generate cDNA with 100 U MMLV reverse transcriptase (Promega), 0.45 μM gene specific primer, and 20 U RNase inhibitor (Promega). The amount of cDNA synthesized for 1 h at 42° C. was quantified by real-time PCR (qRT-PCR). The copy number of specific transcripts was calculated to the standard curve generated with known gene copy concentrations. The IC50 is the concentration at which the curve passes through the 50% inhibition level. Standard deviation was calculated from 3 independent experiments.
The compounds were initially tested at 0.1 μM and 1 μM using as a target the promoter of the livJ gene that encodes a transporter of branch-chain amino acids (Table 4).

The subject of a further data set is Salmonella strain 14028s. As to the kind of experiment: Minimum inhibitory concentration in EG minimal media. The format is cell-based, Salmonella Typhimurium. The settings on record: 18 h; for Growth in EG at concentration tested 1 μg/ml / Growth in EG at concentration tested 2 μg/ml / Growth in EG at concentration tested 4 μg/ml / Growth in EG at concentration tested 8 μg/ml / Growth in EG at concentration tested 16 μg/ml / Growth in EG at concentration tested 32 μg/ml: EG minimal media, 37° C.; for MIC: Salmonella, 14028S. The procedure: DksA controls transcription of metabolic and virulence genes, allowing bacteria to both grow in minimum media and cause disease. Inhibition of bacterial growth in EG minimum media was used as an easy and reliable proxy of the DksA-dependent regulation of metabolism.
In a non-limiting example, wild-type Salmonella strain 14028s was grown overnight (18.5 h), and then diluted in EG minimal media to a density of about 10^5 CFU/mL. […] Each test tube was incubated at 37° C. with shaking for 18 h and bacterial growth was evaluated. The MIC value was determined as the lowest concentration of compound that inhibited growth.

Values after ≈ are worked out from the molar mass of the structure shown.

DksA, sequence (P0A1G5 whole entry): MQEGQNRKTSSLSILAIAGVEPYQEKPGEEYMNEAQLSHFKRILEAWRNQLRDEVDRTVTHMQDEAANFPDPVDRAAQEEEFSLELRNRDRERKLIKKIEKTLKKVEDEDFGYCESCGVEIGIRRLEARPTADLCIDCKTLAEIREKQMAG

As for `CC(C)(C)c1ccc(NC(=O)c2nc[nH]n2)cc1` [Compound 13, N-(4-(tert-butyl)phenyl)-1H-1,2,4-triazole-3-carboxamide], in “Compound solubility”, the “Compound Solubility, 1 μM” value was “water”; the “Compound Solubility, 10 μM” value is listed as “water”; the “Compound Solubility, 100 μM” value is “water”; the “Compound Solubility, 1 mM” value is on record as “water”. Besides, in “Compound solubility”, the “Compound Solubility, 10 mM” value was “DMSO” and the “Compound Solubility, 16 mg/ml” value is “DMSO”. On DksA, the “In vitro transcription assay result, 0.1 μM” value is “no induction”; the “In vitro transcription assay result, 1 μM” value is recorded as “no induction”; the IVT was determined as 0.1 µM. Further, in the data set on Salmonella strain 14028s, the “Growth in EG at concentration tested 1 μg/ml” value is recorded as “+”, the “Growth in EG at concentration tested 2 μg/ml” value is given as “+”, the “Growth in EG at concentration tested 4 μg/ml” value was “+” and the “Growth in EG at concentration tested 8 μg/ml” value was “+”. Besides, in the data set with Salmonella strain 14028s, the “Growth in EG at concentration tested 16 μg/ml” value is “+” and the “Growth in EG at concentration tested 32 μg/ml” value is reported as “+”.
In general, MIC refers to the smallest concentration in the dilution series that meets the test's criterion for growth inhibition. Low readings indicate a more susceptible organism, high ones a less susceptible organism. With `O=C(NCc1ccc2c(c1)OCO2)c1nc[nH]n1` [Compound 6, N-(benzo[d][1,3]dioxol-5-ylmethyl)-1H-1,2,4-triazole-3-carboxamide], in “Compound solubility”, the “Compound Solubility, 1 μM” value is given as “water”; the “Compound Solubility, 10 μM” value is “water”; the “Compound Solubility, 100 μM” value is on record as “water”; the “Compound Solubility, 1 mM” value was “water”. For the same compound, in “Compound solubility”, the “Compound Solubility, 10 mM” value is “water” and the “Compound Solubility, 16 mg/ml” value is “DMSO”. For the same compound, on DksA, the “In vitro transcription assay result, 0.1 μM” value is given as “no change” and the “In vitro transcription assay result, 1 μM” value is “no change”. For the same compound, in the data set with Salmonella strain 14028s, the “Growth in EG at concentration tested 1 μg/ml” value was “+”, the “Growth in EG at concentration tested 2 μg/ml” value is listed as “+” and it took 8 µg/mL (≈ 32.5 µM) to inhibit growth (MIC).
With `C[C@H](NC(=O)c1nc[nH]n1)c1ccccc1` [Compound 18, (S)-N-(1-phenylethyl)-1H-1,2,4-triazole-3-carboxamide], in the data set “Compound solubility”, the “Compound Solubility, 1 μM” value is “water”; the “Compound Solubility, 10 μM” value is given as “water”; the “Compound Solubility, 100 μM” value is “water”; the “Compound Solubility, 1 mM” value is “water”. Moreover, in “Compound solubility”, the “Compound Solubility, 10 mM” value was “water” and the “Compound Solubility, 16 mg/ml” value was “DMSO”. Also, at DksA, the “In vitro transcription assay result, 0.1 μM” value was “no induction”; the “In vitro transcription assay result, 1 μM” value was “no induction”; the IVT is 0.1 µM. Also, in the data set on Salmonella strain 14028s, the “Growth in EG at concentration tested 1 μg/ml” value is recorded as “+”, the “Growth in EG at concentration tested 2 μg/ml” value was “+”, the “Growth in EG at concentration tested 4 μg/ml” value is on record as “+” and the “Growth in EG at concentration tested 8 μg/ml” value is “+”. In addition, in the data set on Salmonella strain 14028s, the “Growth in EG at concentration tested 16 μg/ml” value is given as “+” and the “Growth in EG at concentration tested 32 μg/ml” value was “+”.
As to `C[C@@H](NC(=O)c1nc[nH]n1)c1ccccc1` [Compound 17, (R)-N-(1-phenylethyl)-1H-1,2,4-triazole-3-carboxamide], in “Compound solubility”, the “Compound Solubility, 1 μM” value is “water”; the “Compound Solubility, 10 μM” value is reported as “water”; the “Compound Solubility, 100 μM” value is given as “water”; the “Compound Solubility, 1 mM” value is on record as “water”. In “Compound solubility”, the “Compound Solubility, 10 mM” value is “water” and the “Compound Solubility, 16 mg/ml” value is listed as “DMSO”. Also, at DksA, the “In vitro transcription assay result, 0.1 μM” value is “no induction”; the “In vitro transcription assay result, 1 μM” value is “no induction”; the IVT was found to be 0.1 µM. Besides, in the data set on Salmonella strain 14028s, the “Growth in EG at concentration tested 1 μg/ml” value is on record as “+”, the “Growth in EG at concentration tested 2 μg/ml” value is reported as “+”, the “Growth in EG at concentration tested 4 μg/ml” value was “+” and the “Growth in EG at concentration tested 8 μg/ml” value is “+”. Besides, in the data set with Salmonella strain 14028s, the “Growth in EG at concentration tested 16 μg/ml” value is recorded as “+” and the “Growth in EG at concentration tested 32 μg/ml” value was “+”.
Consider `COc1ccc(CNC(=O)c2nc[nH]n2)cc1OC` [Compound 2, N-(3,4-dimethoxybenzyl)-1H-1,2,4-triazole-3-carboxamide], for which, in “Compound solubility”, the “Compound Solubility, 1 μM” value is listed as “water”; the “Compound Solubility, 10 μM” value is recorded as “water”; the “Compound Solubility, 100 μM” value was “water”; the “Compound Solubility, 1 mM” value was “water”. Moreover, in the data set “Compound solubility”, the “Compound Solubility, 10 mM” value is given as “water” and the “Compound Solubility, 16 mg/ml” value is listed as “DMSO”. Besides, on DksA, the “In vitro transcription assay result, 0.1 μM” value is on record as “no change” and the “In vitro transcription assay result, 1 μM” value is given as “no change”. Besides, in the data set with Salmonella strain 14028s, the “Growth in EG at concentration tested 1 μg/ml” value is listed as “+”, the “Growth in EG at concentration tested 2 μg/ml” value is “+”, the “Growth in EG at concentration tested 4 μg/ml” value is “+” and the “Growth in EG at concentration tested 8 μg/ml” value is on record as “+”. Also, in the data set on Salmonella strain 14028s, the “Growth in EG at concentration tested 16 μg/ml” value is given as “+” and the “Growth in EG at concentration tested 32 μg/ml” value is reported as “+”.
Regarding `COc1cccc(CNC(=O)c2nc[nH]n2)c1` [Compound 7, N-(3-methoxybenzyl)-1H-1,2,4-triazole-3-carboxamide], in “Compound solubility”, the “Compound Solubility, 1 μM” value is on record as “water”; the “Compound Solubility, 10 μM” value is reported as “water”; the “Compound Solubility, 100 μM” value is reported as “water”; the “Compound Solubility, 1 mM” value is listed as “water”. Besides, in “Compound solubility”, the “Compound Solubility, 10 mM” value is “water” and the “Compound Solubility, 16 mg/ml” value is on record as “DMSO”. At DksA, the “In vitro transcription assay result, 0.1 μM” value was “no change” and the “In vitro transcription assay result, 1 μM” value is listed as “no change”. In addition, in the data set on Salmonella strain 14028s, the “Growth in EG at concentration tested 1 μg/ml” value was “+”, the “Growth in EG at concentration tested 2 μg/ml” value is given as “+”, the “Growth in EG at concentration tested 4 μg/ml” value was “+” and the MIC came to 8 µg/mL (≈ 34.4 µM).
On to `O=C(Nc1cccc(OC(F)(F)F)c1)c1nc[nH]n1` [Compound 5, N-(3-(trifluoromethoxy)phenyl)-1H-1,2,4-triazole-3-carboxamide], for which, in the data set “Compound solubility”, the “Compound Solubility, 1 μM” value is given as “water”; the “Compound Solubility, 10 μM” value is “water”; the “Compound Solubility, 100 μM” value is given as “water”; the “Compound Solubility, 1 mM” value is on record as “water”. Moreover, in the data set “Compound solubility”, the “Compound Solubility, 10 mM” value is “DMSO” and the “Compound Solubility, 16 mg/ml” value is listed as “DMSO”. At DksA, the “In vitro transcription assay result, 0.1 μM” value is reported as “no induction”; the “In vitro transcription assay result, 1 μM” value is given as “no induction”; the IVT amounted to 0.1 µM. In the data set with Salmonella strain 14028s, the “Growth in EG at concentration tested 1 μg/ml” value is “+”, the “Growth in EG at concentration tested 2 μg/ml” value is “+”, the “Growth in EG at concentration tested 4 μg/ml” value was “+” and the “Growth in EG at concentration tested 8 μg/ml” value is recorded as “+”. In addition, in the data set on Salmonella strain 14028s, the “Growth in EG at concentration tested 16 μg/ml” value is reported as “+” and the “Growth in EG at concentration tested 32 μg/ml” value is recorded as “+”.

(Values after patent publication US12043601B2, “N-substituted-1H-1,2,4-triazole-3-carboxamides, analogues thereof, and methods of treatment using same” (THE REGENTS OF THE UNIVERSITY OF COLORADO, priority 2018, dated 2024).)
